From ChEMBL document CHEMBL1201862, “PubChem BioAssay data set” (2004) come the findings set out here.

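96-well plates; 48 h exposure; 5 concentrations. Endpoints by linear interpolation between flanking doses. Not reached: highest tested concentration assigned. GI50: concentration for 50% inhibition of growth.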 Active and inactive are the calls of the source. Cut-off read from the data, not from the text of the source: active = GI50 up to about 1.1 µM and inactive = higher.

Among the test systems are 786-0; A498; A549; ACHN; CAKI-1; CCRF-CEM; EKVX; HCT-116; HT-29; KM12; LOX IMVI; MCF7; MDA-MB-435; MOLT-4; Malme-3M; NCI-H522; OVCAR-8; SF-295; SK-OV-3; HOP-92.
Common to all, as to test: NCI tumour cell line growth inhibition, 48 h

For `CC1(Cc2cc3c(cc2C2(c4ccc([N+](=O)[O-])cc4)OCCO2)OCO3)OCCO1`, the GI50 with 786-0 is > 100 µM (inactive); in the assay on A498, > 100 µM (inactive); with A549, 43.8 µM (inactive); in the assay with ACHN it was 93.3 µM (inactive); in the assay on CAKI-1, 63.5 µM (inactive); with CCRF-CEM, 49.3 µM (inactive). The GI50 was > 100 µM (inactive) in the assay on EKVX; > 100 µM (inactive) with HCT-116; > 100 µM (inactive) in the assay on HT-29; 72.3 µM (inactive) in the assay with KM12; > 100 µM (inactive) with LOX IMVI; 51.8 µM (inactive) in the assay on MCF7. The GI50 in the assay with MDA-MB-435 was 98.2 µM (inactive); with MOLT-4, 32.7 µM (inactive); in the assay on Malme-3M, > 100 µM (inactive); in the assay on NCI-H522 it was 24.7 µM (inactive); in the assay with OVCAR-8 it was 59.2 µM (inactive); in the assay on SF-295, > 100 µM (inactive). In the assay on SK-OV-3, the GI50 is > 100 µM (inactive).

On to `CCN1C/C(=C\c2ccc(Cl)cc2)c2[nH]c(=O)c(C#N)c(-c3ccc(Cl)cc3)c2C1`, for which the GI50 was > 100 µM (inactive) with 786-0; > 100 µM (inactive) with A498; > 100 µM (inactive) with A549; > 100 µM (inactive) with ACHN; 71.6 µM (inactive) with CCRF-CEM; > 100 µM (inactive) in the assay on EKVX. The GI50 with HCT-116, with HOP-92, with HT-29, with KM12, in the assay on LOX IMVI and with MCF7 was > 100 µM (inactive) throughout. Also, the GI50 was > 100 µM (inactive) in the assay with MDA-MB-435, 21.2 µM (inactive) in the assay with MOLT-4, > 100 µM (inactive) in the assay on Malme-3M and > 100 µM (inactive) in the assay with SK-OV-3.

Turning to `COC(=O)CCCC(=O)NC1=C(NCc2ccccc2)C(=O)c2ccccc2C1=O`, the GI50 in the assay on 786-0 is 63.8 µM (inactive); in the assay with A498, > 100 µM (inactive); with A549 it was 56.5 µM (inactive); with ACHN, 73.8 µM (inactive); in the assay with CAKI-1 it was > 100 µM (inactive); in the assay on CCRF-CEM, 36.3 µM (inactive). The GI50 with EKVX is 51.4 µM (inactive); in the assay with HCT-116, 32.1 µM (inactive); in the assay on KM12 it was 53.7 µM (inactive); in the assay on LOX IMVI it was 46.2 µM (inactive); in the assay with MCF7, 30.3 µM (inactive); with MDA-MB-435 it was 42.4 µM (inactive). Besides, the GI50 is 34 µM (inactive) in the assay on MOLT-4; 15.5 µM (inactive) in the assay on Malme-3M; 70.5 µM (inactive) in the assay on NCI-H522; 68.4 µM (inactive) with OVCAR-8; > 10 µM (inactive) in the assay on SF-295; 45.5 µM (inactive) in the assay on SK-OV-3.

As to `COc1cc(/C=C2\CCC(C)C3=C2NC(=S)NC3c2cc(OC)c(OC)c(OC)c2)cc(OC)c1OC` (stereo unspecified), the GI50 with 786-0 was 83.9 µM (inactive); in the assay on A498, 53 µM (inactive); in the assay on A549 it was 36.4 µM (inactive); in the assay on ACHN, 92.7 µM (inactive); with CAKI-1 it was 81.5 µM (inactive); with CCRF-CEM it was 25.2 µM (inactive). The GI50 in the assay with EKVX is 58.1 µM (inactive); in the assay with HCT-116, 49 µM (inactive); with HOP-92 it was > 100 µM (inactive); with HT-29, 60.1 µM (inactive); with KM12, 32.3 µM (inactive); in the assay on LOX IMVI, 53.2 µM (inactive). In addition, the GI50 is 35.7 µM (inactive) in the assay with MCF7; 38.2 µM (inactive) in the assay with MDA-MB-435; 24 µM (inactive) with MOLT-4; 54 µM (inactive) with OVCAR-8; > 100 µM (inactive) in the assay on SK-OV-3.

With `CC(=O)OCC1OC(O[C@H]2C=C[C@@H](C(=O)OCc3ccccc3)n3c(=O)n(-c4ccccc4)c(=O)n32)C(OC(C)=O)C(OC(C)=O)C1OC(C)=O` (stereo partly specified), the GI50 in the assay on 786-0 is 1.6 µM (inactive); with A498 it was 2.55 µM (inactive); with A549, 17.2 µM (inactive); in the assay on ACHN, 1.71 µM (inactive); in the assay on CAKI-1, 1.48 µM (inactive); in the assay with CCRF-CEM it was 0.851 µM (active). The GI50 was 1.95 µM (inactive) in the assay with EKVX; 2.22 µM (inactive) in the assay on HCT-116; 1.96 µM (inactive) in the assay with HOP-92; 1.56 µM (inactive) with HT-29; 3.27 µM (inactive) in the assay on KM12; 1.2 µM (inactive) in the assay on LOX IMVI. Further, the GI50 was 1.17 µM (inactive) in the assay on MCF7; 2.07 µM (inactive) in the assay on MDA-MB-435; 2.09 µM (inactive) in the assay with MOLT-4; 0.986 µM (active) in the assay with NCI-H522; 2.48 µM (inactive) with OVCAR-8; 10.6 µM (inactive) in the assay with SF-295. Further, the GI50 in the assay on SK-OV-3 is 18.7 µM (inactive).

As for `COc1c(O)cc2ccnc3c2c1N(C)C=C3`, the GI50 in the assay with 786-0 is 83.8 µM (inactive); with A498, > 100 µM (inactive); in the assay with A549, > 100 µM (inactive); in the assay with ACHN, 56.1 µM (inactive); in the assay on CAKI-1 it was > 100 µM (inactive); with EKVX, > 100 µM (inactive). Moreover, the GI50 with HCT-116 was 67.3 µM (inactive); in the assay on KM12, > 100 µM (inactive); in the assay on LOX IMVI, > 100 µM (inactive); in the assay on MCF7, > 100 µM (inactive); with MDA-MB-435, > 100 µM (inactive); with MOLT-4, 91.6 µM (inactive). Further, the figures for the GI50 in the assay with OVCAR-8, with SF-295 and in the assay with SK-OV-3 were 95.1 µM (inactive), 55 µM (inactive) and > 100 µM (inactive), respectively.

`Cc1cc2c(c(S(=O)(=O)c3ccccc3[N+](=O)[O-])c1)NCCC2`: the GI50 was > 100 µM (inactive) in the assay on 786-0; > 100 µM (inactive) in the assay with A498; 40.3 µM (inactive) in the assay on A549; 28.9 µM (inactive) in the assay on ACHN; > 100 µM (inactive) in the assay with EKVX; > 100 µM (inactive) in the assay with HT-29. The GI50 in the assay on KM12 is 63.8 µM (inactive); with LOX IMVI it was 47.2 µM (inactive); with MCF7, 58.6 µM (inactive); with MDA-MB-435 it was 25.6 µM (inactive); in the assay with Malme-3M, 44.8 µM (inactive); in the assay with NCI-H522 it was 16.1 µM (inactive). For the same compound, the GI50 is > 100 µM (inactive) in the assay on OVCAR-8, 55.6 µM (inactive) with SF-295 and > 100 µM (inactive) with SK-OV-3.

`FC(F)(Sc1ncc[nH]1)c1nc2ccccc2o1`: the GI50 in the assay on 786-0, with A498, in the assay on A549, with ACHN, in the assay on CAKI-1 and in the assay with CCRF-CEM was > 100 µM (inactive) throughout. In addition, the GI50 in the assay on HCT-116, in the assay with HOP-92, in the assay on HT-29, with KM12, with MCF7 and in the assay on MDA-MB-435 was > 100 µM (inactive) in each case. Also, the GI50 with MOLT-4, in the assay with Malme-3M, in the assay on NCI-H522, in the assay with OVCAR-8, with SF-295 and with SK-OV-3 was > 100 µM (inactive) in each case.

`Cc1ccc2c(c1)C(=O)/C(=C1/CCc3ccc(C)cc31)C2`: the GI50 in the assay on 786-0 was 46 µM (inactive); in the assay on A498, > 100 µM (inactive); in the assay with A549, > 100 µM (inactive); with ACHN, > 100 µM (inactive); in the assay on CCRF-CEM it was 86.5 µM (inactive); in the assay on EKVX, > 100 µM (inactive). For the same compound, the GI50 in the assay on HCT-116 was 59 µM (inactive); in the assay with HOP-92, > 100 µM (inactive); with HT-29, > 100 µM (inactive); in the assay on KM12, > 100 µM (inactive); in the assay on LOX IMVI, > 100 µM (inactive); with MCF7 it was > 100 µM (inactive). For the same compound, the GI50 in the assay with MDA-MB-435 was > 100 µM (inactive); in the assay with MOLT-4, > 100 µM (inactive); with Malme-3M, > 100 µM (inactive); in the assay on NCI-H522, 32.4 µM (inactive); with OVCAR-8 it was 48.6 µM (inactive); in the assay with SF-295, > 100 µM (inactive). For the same compound, the GI50 in the assay with SK-OV-3 was > 100 µM (inactive).

As for `COc1cc([N+](=O)[O-])c(OC)c2c(Nc3ccc(S(=O)(=O)O)c4cc(S(=O)(=O)O)cc(S(=O)(=O)O)c34)cc(C)nc12`, the GI50 with 786-0, in the assay on A498, in the assay with A549, with CAKI-1, with CCRF-CEM and in the assay on EKVX was > 100 µM (inactive) in each case. The GI50 with HCT-116, in the assay on HT-29, with KM12, in the assay with LOX IMVI, in the assay on MCF7 and in the assay on MDA-MB-435 was > 100 µM (inactive) each time. Moreover, the GI50 with MOLT-4, with Malme-3M, with NCI-H522, with OVCAR-8 and in the assay on SK-OV-3 was > 100 µM (inactive) each time.

As to `O=C(O)C1[C@@H](C(=O)O)C1(Br)CBr` (stereo partly specified), the GI50 in the assay on 786-0, in the assay with A498, in the assay on A549, in the assay on ACHN, with CAKI-1 and with EKVX was > 100 µM (inactive) in each case. The GI50 in the assay on HCT-116, with HOP-92, in the assay with HT-29, in the assay on KM12, in the assay with LOX IMVI and in the assay with MCF7 was > 100 µM (inactive) in each case. Moreover, the GI50 in the assay on MDA-MB-435, in the assay with MOLT-4, in the assay on NCI-H522, in the assay with OVCAR-8, with SF-295 and with SK-OV-3 was > 100 µM (inactive) each time.
